In US8003327B2, “Methods of screening for risk of proliferative disease and methods for the treatment of proliferative disease” (Duke University, priority 1998, dated 2011):
≈ marks a conversion by molar mass, not a printed value.

Assays:
[1] = system: NT2 cells; assay: Dose response of NT2 cell viability to drugs, trypan blue method; assay type: cell-based; settings: for IC50: Homo sapiens, 18 hours, trypan blue, read-out: dose resulting in 50% killing at 18 hours
Method: Drug treatments: Dose response curves were established for etoposide, vincristine and staurosporine in NT2 cells (FIGS. 3Ai, 3Bi and 3Ci). […] Survival represents the number of drug treated viable cells divided by the number of untreated viable cells and expressed as a percentage. Protection is calculated as the difference in survival between CLN3-overexpressing cells and the vector-transfected control cells. The degree of protection is calculated as the difference in survival between treated CLN3-overexpressing and vector control cells divided by the survival of treated vector control cells. The values are from three separate experiments, each of which was carried out in triplicate (FIGS. 3Aii, 3Bii, and 3Cii).

[2] = system: NT2 cells; assay: DNA fragmentation (low molecular weight DNA ladder) in NT2 cells; assay type: cell-based
Method: FIG. 4. […] NT2 cells were transiently transfected with CLN3 (lanes 1, 3 and 5) or vector alone (lanes 2, 4 and 6) followed by treatment with either 10 μg/ml etoposide (lanes 1 and 2) or 500 nM staurosporine (lanes 3 and 4) or 1 μg/ml vincristine (lanes 5 and 6). Low molecular weight DNA was extracted and analyzed on a 2% agarose gel in Tris-Borate-EDTA buffer (Rosenbaum et al, Ann. Neurol. 36, 864-870 (1994)).
A hallmark of apoptosis is the fragmentation of nuclear DNA into nucleosome-sized fragments creating a DNA ladder of 180 bp and its concatamers (Arends M J, et al., Am. J. Pathol. 136: 593-608 (1990)). […] NT2 cells were transiently transfected with CLN3 or vector alone, then treated with the drugs prior to the extraction of low molecular weight DNA (Rosenbaum D M, et al., Ann. Neurol. 36: 864-870 (1994)).

Row | SMILES | IC50 ([1]; NT2 cells) [µg/mL] | DNA fragmentation in NT2 cells caused by drug [2] | apoptosis induction in NT2 cells ([1]; increasing concentrations, counted at 6, 12, 18 and 24 hour) | optimal concentration for causing apoptosis in NT2 cells ([1]; NT2 cells, dose response curves) [nM]
1 | CC[C@]1(O)C[C@H]2CN(CCc3c([nH]c4ccccc34)[C@@](C(=O)OC)(c3cc4c(cc3OC)N(C=O)[C@H]3[C@@](O)(C(=O)OC)[C@H](OC(C)=O)[C@]5(CC)C=CCN6CC[C@]43[C@@H]65)C2)C1 [vincristine] | 1 (≈ 1.21 µM) | cause DNA fragmentation | – | –
2 | COc1cc([C@@H]2c3cc4c(cc3[C@@H](O[C@@H]3O[C@@H]5CO[C@@H](C)O[C@H]5[C@H](O)[C@H]3O)[C@H]3COC(=O)[C@H]23)OCO4)cc(OC)c1O [etoposide] | 10 (≈ 17 µM) | cause DNA fragmentation | – | –
3 | CCCCCCCCCCCCC/C=C/[C@@H](O)[C@H](CO)NC(C)=O [C2-ceramide] | – | – | effective apoptotic agent | –
4 | CN[C@@H]1C[C@H]2O[C@@](C)([C@@H]1OC)n1c3ccccc3c3c4c(c5c6ccccc6n2c5c31)C(=O)NC4 [staurosporine] | – | cause DNA fragmentation | – | 500
